Results reported in paper PMC10447463, “Data-mining unveils structure–property–activity correlation of viral infectivity enhancing self-assembling peptides” (Nature Communications, 2023).
Where two headings read alike, the source gives them in different places.

Key:
[1] = assay type: physicochemical; details: for ThT Cat. / ThT-Fluorescence (categorical): ThT-active if fluorescence at least twice the control
Summary of the method: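 Preformed peptide fibrils (1 mg/mL) mixed with 50 µM ThT in PBS, 15 min at RT, fluorescence ex 440/em 488 nm versus PBS blank, triplicates. Zeta potential: peptides at 1 mg/mL in PBS pH 7.4, aged 1 d at RT, diluted in 1 mM KCl, Smoluchowski from electrophoretic mobility.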

[2] = system: HIV-1 infection of TZM-bl cells; assay: HIV-1 infectivity enhancement assay, β-galactosidase luminescence; assay type: cell-based; details: for Rel-EFC / Log10 Infection Rel EFC: 1.3 µM peptide; for Rel-EFC: infection relative to EF-C (QCKIKQIINMWQ = 1); for Log10 Infection Rel EFC: log10 of infection relative to EF-C; for Log Infectivity: Fig. S7 panel A (plotted against β-sheet content), Log10 infection relative to EF-C, asymmetric std dev errors; for Log Infectivity / Abs. Inf.: TZM-bl cells; for Log10 Infection Rel EF-C: HIV-1 infection of TZM-bl cells; for Log10 of Rel to EFC (Feb2021): Log10 of infection relative to EF-C; for Abs. Inf.: absolute HIV-1 infection signal, β-galactosidase luminescence
[3] = Log10 of infection rate relative to EF-C, Figure 3A source data
[4] = infection rate relative to EF-C, log10, data of Figure 2D
[5] = infection rate relative to EF-C, log10, source data of Figure 2C
[6] = ThT fluorescence category, 1 if Rel. ThT >2
[7] = second listing, peptides with TEM 2cat 0

ILKNLSRSRKIKIQINMWQ
Tht category (> 2 to blank = +) ([1]; Fig S10 panel D): 1 (ThT. Cat is 1, if Rel. ThT >2) | ThT Cat, ([1]; ThT category, 1 if Rel. ThT >2): 1 (ThT. Cat is 1, if Rel. ThT >2) | ThT Cat. ([1]; ThT category, 1 if Rel. ThT >2): 1 (ThT. Cat is 1, if Rel. ThT >2) | ThT Cat. / ThT-Fluorescence (categorical) [1]: 1 (ThT. Cat is 1, if Rel. ThT >2) | Rel-EFC [2]: 0,32 | Log10 Infection Rel EFC [2]: -0,49 | Log Infectivity [2]: -0.4939 | Log10 Infection Rel EF-C [2, 3]: -0.49 | Log10 Infection Rel EF-C [2, 4]: -0.4939 | Log10 Infection Rel EF-C [2, 5]: -0.4939 | Log10 of Rel to EFC (Feb2021) ([2]; all peptides of FigS16): -0.49 | Abs. Inf. [2]: 1797

HHHHKIKIKIKIYYYY
Tht category (> 2 to blank = +) ([1]; Fig S10 panel D): 1 (ThT. Cat is 1, if Rel. ThT >2) | ThT Cat, ([1]; ThT category, 1 if Rel. ThT >2): 1 (ThT. Cat is 1, if Rel. ThT >2) | ThT Cat. [1, 6]: 1 (ThT. Cat is 1, if Rel. ThT >2) | ThT Cat. / ThT-Fluorescence (categorical) [1]: 1 (ThT. Cat is 1, if Rel. ThT >2) | Rel-EFC [2]: 0,68 | Log10 Infection Rel EFC [2]: -0,17 | Log Infectivity [2]: -0.1685 | Log10 Infection Rel EF-C [2, 3]: -0.17 | Log10 Infection Rel EF-C [2, 4]: -0.1685 | Log10 Infection Rel EF-C [2, 5]: -0.1685 | Log10 of Rel to EFC (Feb2021) ([2]; all peptides of FigS16): -0.17 | Log10 of Rel to EFC (Feb2021) [2, 7]: -0.17 | Abs. Infection at 0.26 µM ([2]; peptide 0.26 µM, mean of n = 3, Figure 4A): 8963 | Infect 1 0.26 µM ([2]; peptide 0.26 µM, replicate 1, absolute infection signal, Figure 4A): 7733.33 | Infect 2 0.26 µM ([2]; peptide 0.26 µM, replicate 2, absolute infection signal, Figure 4A): 6433.33 | Infect 3 0.26 µM ([2]; peptide 0.26 µM, replicate 3, absolute infection signal, Figure 4A): 12723.33 | Abs. Infection at 1.3 µM ([2]; peptide 1.3 µM, mean of n = 3, Figure 4A): 20713.33333 | Infect 1 .3 µM ([2]; peptide 1.3 µM, replicate 1, absolute infection signal, Figure 4A): 24723.33 | Infect 2 1.3µM ([2]; peptide 1.3 µM, replicate 2, absolute infection signal, Figure 4A): 15203.33 | Infect 3 1.3 µM ([2]; peptide 1.3 µM, replicate 3, absolute infection signal, Figure 4A): 22213.33

KVKVQVVV
Tht category (> 2 to blank = +) ([1]; Fig S10 panel D): 0 (ThT-inactive (N-Fold <2)) | Tht category (> 2 to blank = +) ([1]; FigS12 panel A): 0 (ThT-inactive (N-Fold <2)) | ThT Cat, ([1]; FigS12 panel B): 0 (ThT-inactive (N-Fold <2)) | ThT Cat, ([1]; ThT category, 1 if Rel. ThT >2): 0 (ThT-inactive (N-Fold <2)) | ThT Cat. [1, 6]: 0 (ThT-inactive (N-Fold <2)) | ThT Cat. / ThT-Fluorescence (categorical) [1]: 0 (ThT-inactive (N-Fold <2)) | Rel-EFC [2]: 0,04 | Log10 Infection Rel EFC [2]: -1,46 | Log Infectivity [2]: -1.455 | Log10 Infection Rel EF-C [2, 3]: -1.46 | Log10 Infection Rel EF-C [2, 4]: -1.455 | Log10 Infection Rel EF-C [2, 5]: -1.455

KIKIQINMWWWQ
Tht category (> 2 to blank = +) ([1]; Fig S10 panel D): 0 (ThT-inactive (N-Fold <2)) | ThT Cat, ([1]; ThT category, 1 if Rel. ThT >2): 0 (ThT-inactive (N-Fold <2)) | ThT Cat. ([1]; ThT category, 1 if Rel. ThT >2): 0 (ThT-inactive (N-Fold <2)) | ThT Cat. / ThT-Fluorescence (categorical) [1]: 0 (ThT-inactive (N-Fold <2)) | Rel-EFC [2]: 2,75 | Log10 Infection Rel EFC [2]: 0,44 | Log Infectivity [2]: 0.4391 | Log10 Infection Rel EF-C [2, 3]: 0.44 | Log10 Infection Rel EF-C [2, 4]: 0.4391 | Log10 Infection Rel EF-C [2, 5]: 0.4391 | Log10 of Rel to EFC (Feb2021) ([2]; all peptides of FigS16): 0.44 | Log10 of Rel to EFC (Feb2021) [2, 7]: 0.44 | Abs. Inf. [2]: 15400

KLKLKLQL
Tht category (> 2 to blank = +) ([1]; Fig S10 panel D): 0 (ThT-inactive (N-Fold <2)) | Tht category (> 2 to blank = +) ([1]; FigS12 panel A): 0 (ThT-inactive (N-Fold <2)) | ThT Cat, ([1]; FigS12 panel B): 0 (ThT-inactive (N-Fold <2)) | ThT Cat, ([1]; ThT category, 1 if Rel. ThT >2): 0 (ThT-inactive (N-Fold <2)) | ThT Cat. [1, 6]: 0 (ThT-inactive (N-Fold <2)) | ThT Cat. / ThT-Fluorescence (categorical) [1]: 0 (ThT-inactive (N-Fold <2)) | Rel-EFC [2]: 0,1 | Log10 Infection Rel EFC [2]: -1,01 | Log Infectivity [2]: -1.009 | Log10 Infection Rel EF-C [2, 3]: -1.01 | Log10 Infection Rel EF-C [2, 4]: -1.009 | Log10 Infection Rel EF-C [2, 5]: -1.009
